Test results: US10881642B2, “Autophagy enhancer and use thereof” (Industry-Academic Cooperation Foundation, Yonsei University, priority 2016, dated 2021)

How the values were obtained:
mTOR = assay: Western blot for mTOR inhibition (S6K1 phosphorylation); assay type: cell-based; details: immunoblot
Description: Screening of autophagy enhancer. […] Luciferase assay. Firefly and Renilla luciferase assays were conducted using the Dual-Luciferase Reporter Assay System (Promega) according to the manufacturer's recommendation. In brief, cells were lysed in 1× lysis buffer and subjected to a single round of freezing/thawing. Firefly luciferase was determined after mixing 5 μl of lysate with 25 μl of Luciferase Assay Reagent II. Renilla luciferase was then determined after further addition of 20 ul of Stop&Glo Reagent. Cell culture and media and drugs treatment. […] Cytotoxicity was determined by the measurement of LDH release in cell culture media using the LDH kit (Roche), according to the protocol from the manufacturer. […] Imaging and image quantification. […] Formation of acidic vesicular organelles was quantitated by staining the cells with acridine orange (Invitrogen, 5 ug/ml, 10 min). […] Cells or tissues were solubilized in lysis buffer supplemented with protease and phosphatase inhibitors and protein concentration was measured by the Bradford method. Ten to 30 micrograms were loaded on 4-12% Bis-Tris gel (NUPAGE, Invitrogen) or 8-15% SDS-PAGE, transferred to PVDF membranes and analyzed by western blot using the ECL method (Pierce). […] Protein levels were quantified by using ImageJ software analysis. […]

[1] = Liver microsomal stability; assay type: in vitro ADME; details: 30 min incubation with human liver microsome, 10 μM

SMILES	mTOR inhibition (mTOR)	microsomal stability, remaining [1]
CSc1oc(-c2ccccc2)nc1S(=O)(=O)c1ccc(F)cc1 [MSL]	does not involve mTOR inhibition	less than 10%
COc1oc(-c2ccccc2Cl)nc1S(=O)(=O)c1ccccc1 [MSL-7, 2-(2-chlorophenyl)-5-methoxy-4-(phenylsulfonyl) oxazole]	without cellular toxicity or mTOR inhibition	90.5%
